Laboratory results taken from US20210395313A1, “PEPTIDE PAC1 ANTAGONISTS” (AMGEN INC., priority 2017, published 2021).
Where a SMILES comes first, the peptide text is derived from it. Bridges are numbered along the chain shown (N, C = ends). Where no end group is shown, it is not given here.

Biological target: T1, rat PAC1 receptor (Rattus norvegicus, UniProt P32215)
T1 construct: SHSY-5Y (human neuroblastoma cell line) and RG-2 (rat glioma cell line) cells endogenously express human and rat PAC1 receptors, respectively; endogenous in cells; host or cells: RG-2 rat glioma cells
T1 sequence (P32215 20-523): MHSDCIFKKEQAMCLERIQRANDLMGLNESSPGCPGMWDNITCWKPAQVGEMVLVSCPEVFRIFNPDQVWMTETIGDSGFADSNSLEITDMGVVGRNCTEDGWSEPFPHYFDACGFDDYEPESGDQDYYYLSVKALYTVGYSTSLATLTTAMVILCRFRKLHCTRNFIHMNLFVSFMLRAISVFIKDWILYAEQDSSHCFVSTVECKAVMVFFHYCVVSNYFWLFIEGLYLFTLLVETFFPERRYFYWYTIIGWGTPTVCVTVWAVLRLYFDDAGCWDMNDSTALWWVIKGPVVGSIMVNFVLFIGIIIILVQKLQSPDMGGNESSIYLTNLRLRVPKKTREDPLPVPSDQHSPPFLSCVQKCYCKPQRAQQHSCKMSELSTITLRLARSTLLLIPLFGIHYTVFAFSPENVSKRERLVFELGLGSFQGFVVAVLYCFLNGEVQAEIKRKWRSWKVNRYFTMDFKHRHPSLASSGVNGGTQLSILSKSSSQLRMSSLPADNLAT
Assay: LANCE Ultra cAMP accumulation antagonist assay in RG-2 cells;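 note: RG-2 rat glioma cells endogenously expressing PAC1, test peptide preincubated 30 min, then PAC1 agonist added at its EC80 for 15 min, cAMP accumulation read by LANCE Ultra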
Format: cell-based

Molecule | IC50
CC[C@H](C)[C@H](NC(=O)[C@H](C)NC(=O)[C@H](CCCCN)NC(=O)[C@H](CCCNC(=N)N)NC(=O)[C@H](Cc1ccccc1)NC(=O)[C@H](CCC(N)=O)NC(=O)[C@@H]1CSSC[C@H](N)C(=O)N[C@@H](CC(=O)O)C(=O)N[C@@H](C)C(=O)N[C@@H]([C@@H](C)O)C(=O)N1)C(=O)N[C@@H](CC(=O)O)C(=O)N[C@@H](CC(=O)O)C(=O)N[C@H]1CSSC[C@@H](C(=O)N[C@@H](CCSC)C(=O)N[C@@H](CCCCN)C(=O)N[C@@H](CCC(N)=O)C(=O)N[C@@H](CCCCN)C(=O)N[C@@H](CCCCN)C(=O)N[C@@H](CCCCN)C(=O)N[C@@H](CCC(=O)O)C(=O)N[C@@H](Cc2c[nH]c3ccccc23)C(=O)N[C@@H](CCCCN)C(=O)N[C@@H](C)C(=O)NCC(=O)N[C@@H](Cc2c[nH]cn2)C(=O)O)NC(=O)[C@H](C)NC(=O)[C@H](CO)NC(=O)[C@H](Cc2c[nH]cn2)NC(=O)[C@H](Cc2ccc(O)cc2)NC(=O)[C@H](C)NC(=O)[C@H](CCC(N)=O)NC(=O)[C@H](CCCNC(=N)N)NC(=O)[C@H](C)NC1=O [compound 449] (H-CDATCQFRKAIDDCARQAYHSACMKQKKKEWKAGH-OH; disulfide 1-5, 14-23) | 1 to 100 nM
CC[C@H](C)[C@H](NC(=O)[C@H](C)NC(=O)[C@H](CCCCN)NC(=O)[C@H](CCCNC(=N)N)NC(=O)[C@H](Cc1ccccc1)NC(=O)[C@H](CCC(N)=O)NC(=O)[C@@H]1CSSC[C@H](N)C(=O)N[C@@H](CC(=O)O)C(=O)N[C@@H](C)C(=O)N[C@@H]([C@@H](C)O)C(=O)N1)C(=O)N[C@@H](CC(=O)O)C(=O)N[C@@H](CC(=O)O)C(=O)N[C@H]1CSSC[C@@H](C(=O)N[C@@H](CCSC)C(=O)N[C@@H](CCCCN)C(=O)N[C@@H](CCC(N)=O)C(=O)N[C@@H](CCCCN)C(=O)N[C@@H](CCCCN)C(=O)N[C@@H](CCCCN)C(=O)N[C@@H](CCC(=O)O)C(=O)N[C@@H](Cc2c[nH]c3ccccc23)C(=O)N[C@@H](CCCCN)C(=O)N[C@@H](C)C(=O)NCC(N)=O)NC(=O)[C@H](C)NC(=O)[C@H](CCCCN)NC(=O)[C@H](Cc2ccccc2)NC(=O)[C@H](C(C)C)NC(=O)[C@H](CO)NC(=O)[C@H](CO)NC(=O)[C@H](Cc2c[nH]cn2)NC(=O)[C@H](CCCCN)NC(=O)[C@H](C)NC(=O)[C@H](CCC(N)=O)NC(=O)[C@H](CCCNC(=N)N)NC(=O)[C@H](C)NC1=O [compound 434] (H-CDATCQFRKAIDDCARQAKHSSVFKACMKQKKKEWKAG-NH2; disulfide 1-5, 14-27) | < 0.01 nM
CDATCQFRKAIDDCAGTARHSNVPGSVFKACMKQKKKEWKAG-NH2 (disulfide 1-5, 14-31) [compound 446] | 1 to 100 nM
CDATCQFRKAIDDCQKQAHHSNVPGSVFKACMKQKKKEFKAGE (disulfide 1-5, 14-31) [compound 173] | 0.01 to 1 nM
CDATCQFRKAIDDCQKQAHHSNVPGSVFKACMKQKKKEFKAGF (disulfide 1-5, 14-31) [compound 172] | 0.01 to 1 nM
CC[C@H](C)[C@H](NC(=O)[C@H](C)NC(=O)[C@H](CCCCN)NC(=O)[C@H](CCCNC(=N)N)NC(=O)[C@H](Cc1ccccc1)NC(=O)[C@H](CCC(N)=O)NC(=O)[C@@H]1CSSC[C@H](N)C(=O)N[C@@H](CC(=O)O)C(=O)N[C@@H](C)C(=O)N[C@@H]([C@@H](C)O)C(=O)N1)C(=O)N[C@@H](CC(=O)O)C(=O)N[C@@H](CC(=O)O)C(=O)N[C@H]1CSSC[C@@H](C(=O)N[C@@H](CCSC)C(=O)N[C@@H](CCCCN)C(=O)N[C@@H](CCC(N)=O)C(=O)N[C@@H](CCCCN)C(=O)N[C@@H](CCCCN)C(=O)N[C@@H](CCCCN)C(=O)N[C@@H](CCC(=O)O)C(=O)N[C@@H](Cc2c[nH]c3ccccc23)C(=O)N[C@@H](CCCCN)C(=O)N[C@@H](C)C(=O)NCC(=O)N[C@@H](Cc2c[nH]cn2)C(=O)O)NC(=O)[C@H](C)NC(=O)[C@H](CCCCN)NC(=O)[C@H](Cc2ccccc2)NC(=O)[C@H](C)NC(=O)[C@H](C)NC1=O [compound 443] (H-CDATCQFRKAIDDCAAFKACMKQKKKEWKAGH-OH; disulfide 1-5, 14-20) | > 100 nM
